Assays:
[1] = test system: MiaPaCa Human Pancreatic Tumor Xenograft; test: Troxacitabine ± Gemcitabine vs. MiaPaCa human pancreatic tumor xenograft; settings: for # of Toxic Deaths / Mice with Complete Shrinkage / Mice with Partial Shrinkage: n 10
Description: (§1) Female nude mice weighing approximately 20 g were implanted s.c. by trocar with fragments of human tumor harvested from s.c. growing tumors in nude mice hosts. When the tumors were approximately 58mg in size (12 days following inoculation), the animals were pair-matched into treatment and control groups. Each group contained 10 mice, each of which was ear-tagged and followed individually throughout the experiment. Initial doses were given on Day 1 following pair matching. […] Gemcitabine (Eli Lilly, Lot# 4MT16M) was administered intraperitoneally at 40 mg/kg and 80 mg/kg on a q3d×4 schedule.
(§2) Mice were weighed twice weekly, and tumor measurements were taken by calipers twice weekly, starting on Day 1. These tumor measurements were converted to mg tumor weight by a well-known formula, (W^2×L)/2. The experiment was terminated when the control group tumor size reached an average of 1 gram. Upon termination, the mice were weighed, sacrificed and their tumors were excised. The tumors were weighed, and the mean tumor weight per group was calculated.
(§3) Some drugs may cause tumor shrinkage in these tumor enograft models. With these agents, the final weight of a given tumor is subtracted from its own weight at the start of treatment on Day 1. This difference, divided by the initial tumor weight, is converted to percent shrinkage. The mean percent tumor shrinkage can be calculated from data from the mice in a group that experienced tumor regressions. If the tumor completely disappears in a mouse, it is considered a complete regression or complete tumor shrinkage.

[2] = test system: Panc-01 Human Pancreatic Tumor Xenograft; test: Troxacitabine ± Gemcitabine vs. Panc-01 human pancreatic tumor xenograft; settings: for Deaths / Mice with Complete Shrinkage / Mice with Partial Shrinkage: n = 10
Description: as §1, §2, §3

[3] = test system: patients with refractory/relapsed leukemia; test: β-L OddC alone in patients with refractory/relapsed leukemia; assay type: in vivo, human; settings: single agent; 16 evaluable AML patients
Description: A study was conducted to investigate the activity of β-L OddC as a single agent in patients with refractory/relapsed leukemia. The study involved the treatment of patients with refractory or relapsed acute myeloid (AML) or lymphocytic (ALL) leukemia, myelodysplastic syndromes (MDS), or chronic myelogenous leukemia in blastic Phase (CML-BP). A total of 42 patients were treated in the study. As a result, a total of 39 patients were assessable for responses.

[4] = test system: CCRF-CEM cells; test: MTT assay with CalcuSyn median-effect analysis, Troxacitabine/araC on CCRF-CEM cells; assay type: cell-based
Description: The absorbance at 490 nm is directly proportional to the number of living cells in culture at a certain time point. […] Enz. Regulation 22, 1984, pp.27-55. […] Combinations of drugs were then generated around the IC50's of each drug to allow a constant ratio in order to determine if the combination was additive, synergistic or antagonistic. […] A CI below 1 is an indication of synergy, while a CI equal to 1 represents additivity, and a CI above 1 indicates antagonism.

[5] = Determination of maximum tolerated dose (MTD) in non-tumored mice; assay type: in vivo; settings: i.v. qd×5 schedule

SMILES: Nc1ccn([C@@H]2O[C@H](CO)[C@@H](O)C2(F)F)c(=O)n1 [Gemcitabine, reference compound]
- % Tumor Growth Inhibition ([1]; 40 mg/kg i.p., q3d × 4): 37.3%
- Final Tumor Wt. (Mean ± SEM) ([1]; 40 mg/kg i.p., q3d × 4): 733.0 ± 98.7 mg
- # of Toxic Deaths ([1]; 40 mg/kg i.p., q3d × 4): 0
- Mice with Complete Shrinkage ([1]; 40 mg/kg i.p., q3d × 4): 0
- Mice with Partial Shrinkage ([1]; 40 mg/kg i.p., q3d × 4): 0
- % Tumor Growth Inhibition ([1]; 80 mg/kg i.p., q3d × 4): 53.6%
- Final Tumor Wt. (Mean ± SEM) ([1]; 80 mg/kg i.p., q3d × 4): 553.8 ± 124.3 mg
- # of Toxic Deaths ([1]; 80 mg/kg i.p., q3d × 4): 1
- Mice with Complete Shrinkage ([1]; 80 mg/kg i.p., q3d × 4): 0
- Mice with Partial Shrinkage ([1]; 80 mg/kg i.p., q3d × 4): 0
- % Tumor Growth Inhibition ([2]; 40 mg/kg i.p., q3d × 4): 49.8%
- Final Tumor Wt. (Mean ± SEM) ([2]; 40 mg/kg i.p., q3d × 4): 457.8 ± 113.9 mg
- Deaths ([2]; 40 mg/kg i.p., q3d × 4): 0
- Mice with Complete Shrinkage ([2]; 40 mg/kg i.p., q3d × 4): 0
- Mice with Partial Shrinkage ([2]; 40 mg/kg i.p., q3d × 4): 0
- % Tumor Growth Inhibition ([2]; 80 mg/kg i.p., q3d × 4): 74.3%
- Final Tumor Wt. (Mean ± SEM) ([2]; 80 mg/kg i.p., q3d × 4): 262.2 ± 67.7 mg
- Deaths ([2]; 80 mg/kg i.p., q3d × 4): 0
- Mice with Complete Shrinkage ([2]; 80 mg/kg i.p., q3d × 4): 0
- Mice with Partial Shrinkage ([2]; 80 mg/kg i.p., q3d × 4): 0

SMILES: Nc1ccn([C@@H]2CO[C@H](CO)O2)c(=O)n1 [Troxacitabine, (−)-β-L-Dioxolane-Cytidine]
- complete remissions [3]: 2
- partial remissions [3]: 1
- remission rate (complete + partial) [3]: 18%
- % Toxicity ([4]; Troxacitabine 20 nM, 72 h continuous exposure): 0%
- % Toxicity ([4]; Troxacitabine 31 nM, 2 h exposure, MTT at 72 hr): 3 ± 3%
- % Toxicity ([4]; Troxacitabine 62 nM, 2 h exposure, MTT at 72 hr): 12 ± 7%
- % Toxicity ([4]; Troxacitabine 100 nM, 72 h continuous exposure): 28 ± 5%
- % Toxicity ([4]; Troxacitabine 125 nM, 2 h exposure, MTT at 72 hr): 11 ± 2%
- % Toxicity ([4]; Troxacitabine 250 nM, 2 h exposure, MTT at 72 hr): 24 ± 3%
- % Toxicity ([4]; Troxacitabine 500 nM, 2 h exposure, MTT at 72 hr): 34 ± 6%
- % Toxicity ([4]; Troxacitabine 500 nM, 72 h continuous exposure): 65 ± 2%
- % Toxicity ([4]; Troxacitabine 2500 nM, 72 h continuous exposure): 90 ± 2%
- % Toxicity ([4]; Troxacitabine 12500 nM, 72 h continuous exposure): 98 ± 1%
- % Tumor Growth Inhibition ([1]; 10 mg/kg i.v., qd × 5): 23.9%
- Final Tumor Wt. (Mean ± SEM) ([1]; 10 mg/kg i.v., qd × 5): 872.7 ± 171.1 mg
- # of Toxic Deaths ([1]; 10 mg/kg i.v., qd × 5): 3
- Mice with Complete Shrinkage ([1]; 10 mg/kg i.v., qd × 5): 0
- Mice with Partial Shrinkage ([1]; 10 mg/kg i.v., qd × 5): 0
- % Tumor Growth Inhibition ([1]; 25 mg/kg i.v., qd × 5): 29.7%
- Final Tumor Wt. (Mean ± SEM) ([1]; 25 mg/kg i.v., qd × 5): 813.4 ± 57.9 mg
- # of Toxic Deaths ([1]; 25 mg/kg i.v., qd × 5): 0
- Mice with Complete Shrinkage ([1]; 25 mg/kg i.v., qd × 5): 0
- Mice with Partial Shrinkage ([1]; 25 mg/kg i.v., qd × 5): 0
- Final Tumor Wt. (Mean ± SEM) ([2]; 10 mg/kg i.v., qd × 5): 11.1 ± 2.1 mg
- Mean % Tumor Shrinkage ([2]; 10 mg/kg i.v., qd × 5): 77.5%
- Deaths ([2]; 10 mg/kg i.v., qd × 5): 0
- Mice with Complete Shrinkage ([2]; 10 mg/kg i.v., qd × 5): 1
- Mice with Partial Shrinkage ([2]; 10 mg/kg i.v., qd × 5): 9
- Final Tumor Wt. (Mean ± SEM) ([2]; 25 mg/kg i.v., qd × 5): 12.5 ± 1.9 mg
- Mean % Tumor Shrinkage ([2]; 25 mg/kg i.v., qd × 5): 72.6%
- Deaths ([2]; 25 mg/kg i.v., qd × 5): 0
- Mice with Complete Shrinkage ([2]; 25 mg/kg i.v., qd × 5): 1
- Mice with Partial Shrinkage ([2]; 25 mg/kg i.v., qd × 5): 9
- maximum tolerated dose [5]: greater than 25 mg/kg

— patent publication US6800639B2, “Pharmaceutical combination for the treatment of cancer” (Shire BioChem Inc., priority 2001, dated 2004)
